Measured values reported in PMC11098091 (Nature chemical biology, 2022).

Assays:
μOR Q124^2.60A mutant [1] = molecular target: T1, μOR Q124^2.60A mutant (Homo sapiens, UniProt P35372, Q126A); type: cell-based
human μOR (GoB) = human μOR (GoB) (Homo sapiens, UniProt P35372); type: cell-based; details: read-out: potency at GoB
mice = details: mouse, in vivo; cited from earlier work
human μOR = human μOR (Homo sapiens, UniProt P35372); type: cell-based
μOR Y326^7.43F mutant [2] = molecular target: T2, μOR Y326^7.43F mutant (Homo sapiens, UniProt P35372, Y328F); type: cell-based
T2 sequence (P35372 whole entry Y328F): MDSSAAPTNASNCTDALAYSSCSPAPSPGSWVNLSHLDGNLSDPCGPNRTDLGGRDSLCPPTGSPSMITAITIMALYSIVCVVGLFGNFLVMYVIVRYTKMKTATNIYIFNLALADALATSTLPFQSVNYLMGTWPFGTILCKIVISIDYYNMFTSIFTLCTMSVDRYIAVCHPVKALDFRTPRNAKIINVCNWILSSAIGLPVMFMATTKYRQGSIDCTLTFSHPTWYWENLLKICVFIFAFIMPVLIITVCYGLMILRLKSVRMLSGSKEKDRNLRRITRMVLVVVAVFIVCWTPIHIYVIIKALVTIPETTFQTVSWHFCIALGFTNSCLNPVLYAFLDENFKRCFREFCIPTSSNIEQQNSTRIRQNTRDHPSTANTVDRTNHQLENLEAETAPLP

μOR Q124^2.60A mutant [3] = molecular target: T1, μOR Q124^2.60A mutant; type: cell-based; remark: listed apart in the source
human μOR (Gz) = human μOR (Gz) (Homo sapiens, UniProt P35372); type: cell-based; details: read-out: potency at Gz
human μOR (Gz), sequence (P35372 whole entry): as the sequence (P35372 whole entry Y328F) above, with F328Y counted along it

wild type human μOR [4] = molecular target: T3, wild type human μOR (Homo sapiens, UniProt P35372); type: cell-based
T3 sequence (P35372 whole entry): as the sequence (P35372 whole entry Y328F) above, with F328Y counted along it

wild type human μOR [5] = molecular target: T3, wild type human μOR; type: cell-based; remark: listed apart in the source
[6] = molecular target: human μOR (β-arrestin-1, β-arrestin-2) (Homo sapiens, UniProt P35372); type: cell-based
human μOR (β-arrestin-1, β-arrestin-2), sequence (P35372 whole entry): as the sequence (P35372 whole entry Y328F) above, with F328Y counted along it

μOR Y326^7.43F mutant [7] = molecular target: T2, μOR Y326^7.43F mutant; type: cell-based; remark: listed apart in the source

human μOR, sequence (P35372 whole entry): as the sequence (P35372 whole entry Y328F) above, with F328Y counted along it
T1 sequence (P35372 whole entry Q126A): as the sequence (P35372 whole entry Y328F) above, with Q126A, F328Y counted along it
human μOR (GoB), sequence (P35372 whole entry): as the sequence (P35372 whole entry Y328F) above, with F328Y counted along it

## CC[C@@H]1CN2CC[C@]3(Nc4cccc(OC)c4C3=O)[C@@H]2C[C@@H]1/C(=C\OC)C(=O)OC [MP, Mitragynine pseudoindoxyl]
μOR Q124^2.60A mutant [1]
  reduction of maximal Gi response by the Q124A mutation: more than half
Human μOR (GoB)
  EC50: 3.2 nM
mice
  development of antinociceptive tolerance: much more slowly
  potency relative to morphine: approximately ten-fold more potent
  respiratory depression: did not cause respiratory depression
Human μOR
  efficacy at Gi/o/z subtypes compared to DAMGO: partial agonist
  potency spread across G protein subtypes: ~ 3 fold
μOR Y326^7.43F mutant [2]
  reduction of maximal β-arrestin 2 recruitment by the Y326F mutation: eliminated detectable
μOR Q124^2.60A mutant [3]
  arrestin recruitment at the Q124A mutant: completely abolishes
Human μOR (Gz)
  EC50: 0.9 nM
Wild type human μOR [4]
  recruitment of β-arrestins: very little detectable activity
Wild type human μOR [5]
  potency in G protein dissociation assays: as potent as DAMGO
[6]
  recruitment of β-arrestins: no detectable recruitment
μOR Y326^7.43F mutant [7]
  reduction of maximal Gi1 activation by the Y326F mutation: 68%
